Values quoted from earlier work in patent US20230159622A1, “COLLAGEN MIMICS” (Wisconsin Alumni Research Foundation, priority 2006, published 2023).
Marks after values point to notes of the source that are not given here.

Conditions: based on the extrapolation of data from solutions containing trimethylamine N-oxide; literature reference

In the case of (Pro-Pro-Gly)7, the “Tm (±1° C.) of triple helix, based on extrapolation” value is listed as −6^a ° C.
